# Measurements published in patent publication US10758534B2 (Vertex Pharmaceuticals Incorporated, priority 2014, dated 2020).
# Target: T1, F508del (Homo sapiens, UniProt P13569, DEL508-508)
# T1 construct: expressed in transfected cells
# Test: Protocol 1: membrane potential optical assay (FLIPR III, voltage sensing dye), identification of potentiator compounds
# Type: cell-based
# Conditions: Table 3, compounds of Table 1
# How it was run: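 Mouse NIH 3T3 fibroblasts stably expressing F508del, temperature-corrected at 27 °C for 24 h, pretreated with compound, then loaded with voltage-sensing redistribution dye. Forskolin was added in a single step with a chloride gradient (chloride-free gluconate bath; Bath Solution #1 HEPES pH 7.4). Membrane-potential fluorescence read on FLIPR III.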
# T1 sequence (P13569 with tags, fused parts or gaps DEL508-508): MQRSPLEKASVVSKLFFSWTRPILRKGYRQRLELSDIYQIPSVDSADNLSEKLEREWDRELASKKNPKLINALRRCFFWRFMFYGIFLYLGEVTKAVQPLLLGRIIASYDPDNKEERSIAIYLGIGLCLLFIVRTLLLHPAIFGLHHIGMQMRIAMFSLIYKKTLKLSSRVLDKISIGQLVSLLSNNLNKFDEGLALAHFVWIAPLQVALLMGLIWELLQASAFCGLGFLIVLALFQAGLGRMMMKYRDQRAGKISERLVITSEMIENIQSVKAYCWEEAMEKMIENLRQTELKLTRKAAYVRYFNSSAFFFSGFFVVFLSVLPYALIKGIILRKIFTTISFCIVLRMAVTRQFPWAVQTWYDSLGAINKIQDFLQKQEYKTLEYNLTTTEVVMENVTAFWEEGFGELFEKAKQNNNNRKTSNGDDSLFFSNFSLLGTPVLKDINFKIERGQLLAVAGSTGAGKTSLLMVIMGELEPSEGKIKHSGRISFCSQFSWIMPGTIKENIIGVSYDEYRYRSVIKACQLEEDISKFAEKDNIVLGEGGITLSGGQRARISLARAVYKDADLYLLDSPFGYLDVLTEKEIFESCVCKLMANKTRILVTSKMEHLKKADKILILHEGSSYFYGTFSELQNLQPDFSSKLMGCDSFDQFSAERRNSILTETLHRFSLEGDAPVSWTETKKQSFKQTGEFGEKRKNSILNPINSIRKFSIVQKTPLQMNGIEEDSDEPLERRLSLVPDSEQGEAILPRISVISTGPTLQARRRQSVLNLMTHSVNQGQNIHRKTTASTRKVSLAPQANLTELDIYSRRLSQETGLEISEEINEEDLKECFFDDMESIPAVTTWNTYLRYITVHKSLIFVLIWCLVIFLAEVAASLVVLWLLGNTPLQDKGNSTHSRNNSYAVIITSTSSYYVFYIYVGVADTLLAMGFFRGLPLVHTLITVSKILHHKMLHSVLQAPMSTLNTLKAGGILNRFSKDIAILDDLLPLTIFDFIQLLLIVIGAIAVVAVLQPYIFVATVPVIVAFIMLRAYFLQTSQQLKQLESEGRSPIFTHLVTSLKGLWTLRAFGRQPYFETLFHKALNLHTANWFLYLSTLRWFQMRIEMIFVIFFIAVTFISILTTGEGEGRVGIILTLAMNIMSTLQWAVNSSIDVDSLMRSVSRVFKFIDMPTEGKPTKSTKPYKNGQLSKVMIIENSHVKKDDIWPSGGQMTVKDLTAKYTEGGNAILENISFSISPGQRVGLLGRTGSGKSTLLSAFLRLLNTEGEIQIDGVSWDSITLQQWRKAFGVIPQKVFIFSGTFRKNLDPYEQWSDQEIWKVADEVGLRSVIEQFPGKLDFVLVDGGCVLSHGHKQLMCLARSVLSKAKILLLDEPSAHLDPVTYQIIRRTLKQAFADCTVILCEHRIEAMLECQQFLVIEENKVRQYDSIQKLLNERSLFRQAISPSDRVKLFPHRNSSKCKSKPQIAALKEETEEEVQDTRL
row,EC30,Compound
1,+++ (“+++” means <3 uM),"CCOc1cccc(-c2ccc(C(=O)NS(=O)(=O)c3cccnc3N)c(N3C[C@@H](C)CC3(C)C)n2)c1F [Compound 1847, N-[(2-amino-3-pyridyl)sulfonyl]-6-(3-ethoxy-2-fluoro-phenyl)-2-[(4S)-2,2,4-trimethylpyrrolidin-1-yl]pyridine-3-carboxamide]"
2,+++ (“+++” means <3 uM),"CCOc1ccccc1-c1ccc(C(=O)NS(=O)(=O)c2ccc[nH]c2=O)c(N2C[C@@H](C)CC2(C)C)n1 [Compound 1848, 6-(2-ethoxyphenyl)-N-[(2-oxo-1H-pyridin-3-yl)sulfonyl]-2-[(4S)-2,2,4-trimethylpyrrolidin-1-yl]pyridine-3-carboxamide]"
3,++ (“++” means between 3 uM and 10 uM),"CC1CN(c2ncc(-c3cccc(C#N)c3)cc2C(=O)NS(=O)(=O)c2cccc(N)n2)C(C)(C)C1 (stereo not shown) [Compound 1849, N-[(6-amino-2-pyridyl)sulfonyl]-5-(3-cyanophenyl)-2-(2,2,4-trimethylpyrrolidin-1-yl)pyridine-3-carboxamide]"
4,+++ (“+++” means <3 uM),"C[C@@H]1CN(c2nc(C3CCOCC3)ccc2C(=O)NS(=O)(=O)c2cccnc2N)C(C)(C)C1 [Compound 1850, N-[(2-amino-3-pyridyl)sulfonyl]-6-tetrahydropyran-4-yl-2-[(4S)-2,2,4-trimethylpyrrolidin-1-yl]pyridine-3-carboxamide]"
5,+++ (“+++” means <3 uM),"COc1ccc(-c2ccc(C(=O)NS(=O)(=O)c3cccnc3N)c(N3C[C@@H](C)CC3(C)C)n2)cc1F [Compound 1851, N-[(2-amino-3-pyridyl)sulfonyl]-6-(3-fluoro-4-methoxy-phenyl)-2-[(4S)-2,2,4-trimethylpyrrolidin-1-yl]pyridine-3-carboxamide]"
6,+++ (“+++” means <3 uM),"CC(C)(C)c1ccc(C(=O)NS(=O)(=O)c2cccc(N)n2)c(N2CCC(Cc3ccccc3)C2(C)C)n1 (stereo not shown) [Compound 1852, N-[(6-amino-2-pyridyl)sulfonyl]-2-(3-benzyl-2,2-dimethyl-pyrrolidin-1-yl)-6-tert-butyl-pyridine-3-carboxamide]"
7,++ (“++” means between 3 uM and 10 uM),"COc1ccc(-c2ccc(C(=O)NS(=O)(=O)c3ccc[nH]c3=O)c(N3C[C@@H](C)CC3(C)C)n2)c(OC)n1 [Compound 1853, 6-(2,6-dimethoxy-3-pyridyl)-N-[(2-oxo-1H-pyridin-3-yl)sulfonyl]-2-[(4S)-2,2,4-trimethylpyrrolidin-1-yl]pyridine-3-carboxamide]"
8,+++ (“+++” means <3 uM),"C[C@@H]1CN(c2nc(-c3ccc(F)c(F)c3)ccc2C(=O)NS(=O)(=O)c2cccnc2N)C(C)(C)C1 [Compound 1854, N-[(2-amino-3-pyridyl)sulfonyl]-6-(3,4-difluorophenyl)-2-[(4S)-2,2,4-trimethylpyrrolidin-1-yl]pyridine-3-carboxamide]"
9,+++ (“+++” means <3 uM),"CCOc1nn(-c2ccc(C(=O)NS(=O)(=O)c3ccc[nH]c3=O)c(N3C[C@@H](C)CC3(C)C)n2)cc1C [Compound 1856, 6-(3-ethoxy-4-methyl-pyrazol-1-yl)-N-[(2-oxo-1H-pyridin-3-yl)sulfonyl]-2-[(4S)-2,2,4-trimethylpyrrolidin-1-yl]pyridine-3-carboxamide]"
10,+++ (“+++” means <3 uM),"C[C@@H]1CN(c2nc(-c3cccc4ccccc34)ccc2C(=O)NS(=O)(=O)c2cccnc2N)C(C)(C)C1 [Compound 1857, N-[(2-amino-3-pyridyl)sulfonyl]-6-(1-naphthyl)-2-[(4S)-2,2,4-trimethylpyrrolidin-1-yl]pyridine-3-carboxamide]"
11,++ (“++” means between 3 uM and 10 uM),"COc1ccc(-c2ccc(C(=O)NS(=O)(=O)c3ccc[nH]c3=O)c(N3C[C@@H](C)CC3(C)C)n2)c(F)c1 [Compound 1858, 6-(2-fluoro-4-methoxy-phenyl)-N-[(2-oxo-1H-pyridin-3-yl)sulfonyl]-2-[(4S)-2,2,4-trimethylpyrrolidin-1-yl]pyridine-3-carboxamide]"
12,+++ (“+++” means <3 uM),"COc1ncccc1S(=O)(=O)NC(=O)c1cc2ccc(C)cc2nc1N1C[C@@H](C)CC1(C)C [Compound 1859, N-[(2-methoxy-3-pyridyl)sulfonyl]-7-methyl-2-[(4S)-2,2,4-trimethylpyrrolidin-1-yl]quinoline-3-carboxamide]"
13,+++ (“+++” means <3 uM),"CCOc1ccc(-c2ccc(C(=O)NS(=O)(=O)c3cccnc3N)c(N3C[C@@H](C)CC3(C)C)n2)cc1C [Compound 1860, N-[(2-amino-3-pyridyl)sulfonyl]-6-(4-ethoxy-3-methyl-phenyl)-2-[(4S)-2,2,4-trimethylpyrrolidin-1-yl]pyridine-3-carboxamide]"
14,+++ (“+++” means <3 uM),"COc1cccc(-c2cnc(N3CC(C)CC3(C)C)c(C(=O)NS(=O)(=O)c3cccc(N)n3)c2)n1 (stereo not shown) [Compound 1861, N-[(6-amino-2-pyridyl)sulfonyl]-5-(6-methoxy-2-pyridyl)-2-(2,2,4-trimethylpyrrolidin-1-yl)pyridine-3-carboxamide]"
15,+++ (“+++” means <3 uM),"CCc1ccnc(Nc2cccc(S(=O)(=O)NC(=O)c3cccnc3N3CC(C)CC3(C)C)n2)c1 (stereo not shown) [Compound 1862, N—[[6-[(4-ethyl-2-pyridyl)amino]-2-pyridyl]sulfonyl]-2-(2,2,4-trimethylpyrrolidin-1-yl)pyridine-3-carboxamide]"
16,++ (“++” means between 3 uM and 10 uM),"CC1CN(c2ncccc2C(=O)NS(=O)(=O)c2cccc(NCc3nccs3)n2)C(C)(C)C1 (stereo not shown) [Compound 1865, N—[[6-(thiazol-2-ylmethylamino)-2-pyridyl]sulfonyl]-2-(2,2,4-trimethylpyrrolidin-1-yl)pyridine-3-carboxamide]"
17,+++ (“+++” means <3 uM),"COc1ccc(-c2ccc(C(=O)NS(=O)(=O)c3cccnc3N)c(N3C[C@@H](C)CC3(C)C)n2)c(C)n1 [Compound 1866, N-[(2-amino-3-pyridyl)sulfonyl]-6-(6-methoxy-2-methyl-3-pyridyl)-2-[(4S)-2,2,4-trimethylpyrrolidin-1-yl]pyridine-3-carboxamide]"
18,+++ (“+++” means <3 uM),"CCOc1cc(F)ccc1-c1ccc(C(=O)NS(=O)(=O)c2ccc[nH]c2=O)c(N2C[C@@H](C)CC2(C)C)n1 [Compound 1867, 6-(2-ethoxy-4-fluoro-phenyl)-N-[(2-oxo-1H-pyridin-3-yl)sulfonyl]-2-[(4S)-2,2,4-trimethylpyrrolidin-1-yl]pyridine-3-carboxamide]"
19,+++ (“+++” means <3 uM),"C[C@@H]1CN(c2nc(C3CCCCO3)ccc2C(=O)NS(=O)(=O)c2ccccc2)C(C)(C)C1 (stereo partly drawn) [Compound 1868, N-(benzenesulfonyl)-6-tetrahydropyran-2-yl-2-[(4S)-2,2,4-trimethylpyrrolidin-1-yl]pyridine-3-carboxamide]"
20,+++ (“+++” means <3 uM),"COc1cc(F)cc(-c2ccc(C(=O)NS(=O)(=O)c3cccnc3N)c(N3C[C@@H](C)CC3(C)C)n2)c1 [Compound 1869, N-[(2-amino-3-pyridyl)sulfonyl]-6-(3-fluoro-5-methoxy-phenyl)-2-[(4S)-2,2,4-trimethylpyrrolidin-1-yl]pyridine-3-carboxamide]"
21,++ (“++” means between 3 uM and 10 uM),"CCN(CCOC)c1cccc(S(=O)(=O)NC(=O)c2cccnc2N2CC(C)CC2(C)C)n1 (stereo not shown) [Compound 1870, N—[[6-[ethyl(2-methoxyethyl)amino]-2-pyridyl]sulfonyl]-2-(2,2,4-trimethylpyrrolidin-1-yl)pyridine-3-carboxamide]"
22,+++ (“+++” means <3 uM),"Cc1ccc(-c2ccc(C(=O)NS(=O)(=O)c3cccnc3N)c(N3C[C@@H](C)CC3(C)C)n2)c(C)c1 [Compound 1871, N-[(2-amino-3-pyridyl)sulfonyl]-6-(2,4-dimethylphenyl)-2-[(4S)-2,2,4-trimethylpyrrolidin-1-yl]pyridine-3-carboxamide]"
23,+++ (“+++” means <3 uM),"CC1CN(c2ncccc2C(=O)NS(=O)(=O)c2cccc(Nc3ccccc3Cl)n2)C(C)(C)C1 (stereo not shown) [Compound 1872, N—[[6-(2-chloroanilino)-2-pyridyl]sulfonyl]-2-(2,2,4-trimethylpyrrolidin-1-yl)pyridine-3-carboxamide]"
24,+++ (“+++” means <3 uM),"C[C@@H]1CN(c2nc(-c3cccc(F)c3)ccc2C(=O)NS(=O)(=O)c2cccnc2N)C(C)(C)C1 [Compound 1873, N-[(2-amino-3-pyridyl)sulfonyl]-6-(3-fluorophenyl)-2-[(4S)-2,2,4-trimethylpyrrolidin-1-yl]pyridine-3-carboxamide]"
25,+++ (“+++” means <3 uM),"CC1CN(c2ncccc2C(=O)NS(=O)(=O)c2cccc(OCC3CCC=CO3)n2)C(C)(C)C1 (stereo not shown) [Compound 1874, N—[[6-(3,4-dihydro-2H-pyran-2-ylmethoxy)-2-pyridyl]sulfonyl]-2-(2,2,4-trimethylpyrrolidin-1-yl)pyridine-3-carboxamide]"
26,++ (“++” means between 3 uM and 10 uM),"CC1CN(c2ncccc2C(=O)NS(=O)(=O)c2cccc(Oc3ccc4cccnc4c3)n2)C(C)(C)C1 (stereo not shown) [Compound 1875, N—[[6-(7-quinolyloxy)-2-pyridyl]sulfonyl]-2-(2,2,4-trimethylpyrrolidin-1-yl)pyridine-3-carboxamide]"
27,++ (“++” means between 3 uM and 10 uM),"CC(=O)N1CCc2cc(Nc3cccc(S(=O)(=O)NC(=O)c4cccnc4N4CC(C)CC4(C)C)n3)ccc21 (stereo not shown) [Compound 1877, N—[[6-[(1-acetylindolin-5-yl)amino]-2-pyridyl]sulfonyl]-2-(2,2,4-trimethylpyrrolidin-1-yl)pyridine-3-carboxamide]"

row,Compound,EC30
1,"COc1ccc(S(=O)(=O)NC(=O)c2ccc(-c3cc(F)cc(OCC(C)C)c3)nc2N2C[C@@H](C)CC2(C)C)cc1 [Compound 1876, 6-(3-fluoro-5-isobutoxy-phenyl)-N-(4-methoxyphenyl)sulfonyl-2-[(4S)-2,2,4-trimethylpyrrolidin-1-yl]pyridine-3-carboxamide]",+++ (“+++” means <3 uM)
